Measured values taken from patent US12478509B2, “Layered composite for scar treatment and prevention” (THE GOVERNMENT OF THE UNITED STATES AS REPRESENTED BY THE …, priority 2019, dated 2025).

What was measured:
[1] = test system: IL-1β, IL-2, IL-6, IL-13, G-CSF, and MIP-1α; assay: inflammatory cytokines
mouse DPT wounds = assay: neutrophil infiltration in mouse DPT burn wounds; assay type: in vivo
[2] = test system: human dermal fibroblasts (HDF); assay: human dermal fibroblast / myofibroblast studies; assay type: cell-based
p38 MAPK = p38 MAPK activation in TGF-β1 stimulated HDF; assay type: cell-based, human

Cc1ccc(=O)n(-c2ccccc2)c1 [Pirfenidone, 5-methyl-1-phenyl-2-(1H)-pyridone]
key inflammatory cytokines IL-1β, IL-2, IL-6, IL-13, G-CSF, and MIP-1α [1]: reduced | neutrophil infiltration (mouse DPT wounds): decreased | HDF transdifferentiation to myofibroblasts [2]: inhibited | collagen deposition and fibrosis-related gene expression [2]: decreased | contractile machinery of activated dermal myofibroblasts [2]: weakened | p38 MAPK activation (p38 MAPK): reduced
